Results: patent US20260335282A1, “NOVEL 3-ARYLIDENE-2-INDOLINONE DERIVATIVES FOR THERAPEUTIC USE” (ISTANBUL UNIVERSITESI REKTORLUGU, priority 2022, published 2026)
Entries after “also recorded” stand apart in the source; their conditions may differ.

System: A498 cells
Experiment: Apoptosis/necrosis detection, Annexin V/PI flow cytometry, A498
Type: cell-based, human
Method: After incubation with 2-indolinone compounds (IC50 μM concentration; 48 and/or 72 hours), cells are washed twice with PBS and the cell pellet is suspended in Annexin V binding buffer. After this incubation, cells are incubated with FITC-conjugated Annexin V and propidium iodine staining solution for 15 minutes in the dark and at room temperature. Then, cells are analyzed by flow cytometry (Beckman coulter, Navios) (Wlodkowic, D., Skommer, J, Darzynkiewicz, Z. 2009. Flow cytometry-based apoptosis detection, Methods Mol Biol., 559, 1-14).

SMILES: Cc1ccc2c(c1)/C(=C/c1c[nH]c3ccccc13)C(=O)N2Cc1ccccc1 [Y3]
- necrosis compared to control (A498): no increase or decrease; also recorded: did not cause necrosis
- Apoptosis rate compared to control (A498, IC50 concentration): increased significantly
